Measured values reported in patent US20080009418A1, “Selective Inhibitors” (Alchemia LTD., priority 2004, published 2008).

What was measured:
Conditions in all cases: compound at 10 μM
Mouse urotensin (mUR2) = target: T1, Mouse urotensin (mUR2) (Mus musculus, UniProt Q8VIH9); test: Radioligand binding, mouse urotensin mUR2 membranes, FlashPlate, [125I]-Urotensin II
T1 construct: purchased Perkin Elmer Biosignal
T1 sequence (Q8VIH9 1-385): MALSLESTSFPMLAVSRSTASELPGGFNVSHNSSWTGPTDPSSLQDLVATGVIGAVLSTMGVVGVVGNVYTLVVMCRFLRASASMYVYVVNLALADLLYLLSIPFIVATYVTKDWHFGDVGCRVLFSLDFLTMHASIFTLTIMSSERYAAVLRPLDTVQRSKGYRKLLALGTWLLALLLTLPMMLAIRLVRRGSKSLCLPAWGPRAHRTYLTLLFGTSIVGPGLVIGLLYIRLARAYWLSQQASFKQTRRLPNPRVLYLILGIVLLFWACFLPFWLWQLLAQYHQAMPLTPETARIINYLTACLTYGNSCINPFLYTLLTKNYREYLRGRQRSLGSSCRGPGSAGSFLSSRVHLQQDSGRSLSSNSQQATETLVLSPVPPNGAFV
Summary of the method: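 Cloned mouse urotensin (mUR2) receptor membranes from Perkin Elmer Biosignal were immobilized in FlashPlate microplates using a proprietary coating. Each well got 19.5 μl buffer, then 0.5 μl of DMSO, reference ligand, or compound. Adding 5 μl of [125I]-Urotensin II, diluted to 5× final concentration in binding buffer, started binding. Plates were sealed with TopSeal-A and incubated 1 hour at room temperature in the dark. Wells were counted for 30 seconds each on a TopCount after a 60-second delay, and percentage inhibition was calculated.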

Human κ-Opioid (KOP) = target: T2, Human κ-Opioid (KOP) (Homo sapiens, UniProt P41145); test: Radioligand binding, human κ-opioid (KOP) membranes, filtration, [3H]-Diprenorphine
T2 construct: purchased Perkin Elmer Biosignal
Summary of the method: (§1)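 Percent inhibition of radioligand binding measured on recombinant human membranes: NK1 with [125I]-Substance P, KOP with [3H]-Diprenorphine. Incubation 1 h at room temperature, then harvest onto 0.3% PEI-soaked filters, cold Tris-HCl pH 7.4 washes and scintillation counting; non-specific binding from reference ligand wells.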

Human Melanocortin (MC4) = target: T3, Human Melanocortin (MC4) (Homo sapiens, UniProt P32245); test: Radioligand binding, human melanocortin MC4 membranes, FlashPlate, [125I]-NDP-αMSH
T3 construct: purchased Perkin Elmer Biosignal
Summary of the method: (§2)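 Cloned human receptor membranes were coated onto FlashPlate wells and incubated with radioligand and compound (added from a 0.5 mM DMSO daughter plate) for 1 hour at room temperature in the dark. Scintillation counting gave percent inhibition, with DMSO defining total and reference ligand defining non-specific binding.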

[1] = target: T4, Human neuropeptide Y (NPY-Y1) (Homo sapiens, UniProt P25929); test: Radioligand binding, human neuropeptide Y NPY-Y1 membranes, FlashPlate, [125I]-PYY
T4 construct: purchased Perkin Elmer Biosignal
T4 sequence (P25929 1-384): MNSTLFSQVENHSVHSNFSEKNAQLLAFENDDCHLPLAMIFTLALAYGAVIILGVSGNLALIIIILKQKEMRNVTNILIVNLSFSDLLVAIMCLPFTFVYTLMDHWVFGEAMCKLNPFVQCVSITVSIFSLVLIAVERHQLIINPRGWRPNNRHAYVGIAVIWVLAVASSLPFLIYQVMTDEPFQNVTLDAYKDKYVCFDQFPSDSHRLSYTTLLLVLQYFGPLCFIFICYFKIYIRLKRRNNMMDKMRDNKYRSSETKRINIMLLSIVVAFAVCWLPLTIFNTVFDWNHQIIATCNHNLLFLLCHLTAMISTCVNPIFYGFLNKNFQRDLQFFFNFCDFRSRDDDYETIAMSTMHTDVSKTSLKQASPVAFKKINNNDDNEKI
Summary of the method: as §2

Human neurokinin (NK1) = target: T5, Human neurokinin (NK1) (Homo sapiens, UniProt P25103); test: Radioligand binding, human neurokinin NK1 membranes, filtration, [125I]-Substance P
T5 construct: purchased Perkin Elmer Biosignal
Summary of the method: as §1

Human δ-opioid (DOP) = target: T6, Human δ-opioid (DOP) (Homo sapiens, UniProt P41143); test: Radioligand binding, human δ-opioid (DOP) membranes, FlashPlate, [3H]-Bremazocine
T6 construct: purchased Perkin Elmer Biosignal
Summary of the method: as §2

Human μ-opioid (MOP) = target: T7, Human μ-opioid (MOP) (Homo sapiens, UniProt P35372); test: Radioligand binding, human μ-opioid (MOP) membranes, FlashPlate, [3H]-Naloxone
T7 construct: purchased Perkin Elmer Biosignal
Summary of the method: as §2

Human Melanocortin (MC3) = target: T8, Human Melanocortin (MC3) (Homo sapiens, UniProt P41968); test: Radioligand binding, human melanocortin MC3 membranes, FlashPlate, [125I]-NDP-αMSH
T8 construct: purchased Perkin Elmer Biosignal
Summary of the method: as §2

Human opioid (ORL1) = target: T9, Human opioid (ORL1) (Homo sapiens, UniProt P41146); test: Radioligand binding, human opioid ORL1 membranes, FlashPlate, [125I]-Nociceptin
T9 construct: purchased Perkin Elmer Biosignal
Summary of the method: as §2

Human melanocortin (MC5) = target: T10, Human melanocortin (MC5) (Homo sapiens, UniProt P33032); test: Radioligand binding, human melanocortin MC5 membranes, FlashPlate, [125I]-NDP-αMSH
T10 construct: purchased Perkin Elmer Biosignal
Summary of the method: as §2

[2] = target: T11, Human melanin-concentrating hormone (MCH1) (Homo sapiens, UniProt Q99705); test: Radioligand binding, human melanin-concentrating hormone MCH1 membranes, FlashPlate, [125I]-S36057
T11 construct: purchased Perkin Elmer Biosignal
Summary of the method: as §2

T5 sequence (P25103 whole entry): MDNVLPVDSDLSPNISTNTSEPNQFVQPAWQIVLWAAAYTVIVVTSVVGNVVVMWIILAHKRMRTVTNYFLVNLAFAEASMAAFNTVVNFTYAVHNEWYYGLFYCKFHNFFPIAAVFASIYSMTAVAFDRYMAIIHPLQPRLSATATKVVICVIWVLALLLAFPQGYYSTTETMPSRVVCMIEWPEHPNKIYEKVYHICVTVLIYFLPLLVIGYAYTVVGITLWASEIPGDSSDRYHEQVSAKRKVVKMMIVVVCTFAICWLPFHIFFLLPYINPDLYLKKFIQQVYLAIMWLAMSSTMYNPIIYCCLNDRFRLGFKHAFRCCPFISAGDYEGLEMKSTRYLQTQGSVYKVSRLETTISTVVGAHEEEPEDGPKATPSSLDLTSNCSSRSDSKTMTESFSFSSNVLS
T11 sequence (Q99705 whole entry): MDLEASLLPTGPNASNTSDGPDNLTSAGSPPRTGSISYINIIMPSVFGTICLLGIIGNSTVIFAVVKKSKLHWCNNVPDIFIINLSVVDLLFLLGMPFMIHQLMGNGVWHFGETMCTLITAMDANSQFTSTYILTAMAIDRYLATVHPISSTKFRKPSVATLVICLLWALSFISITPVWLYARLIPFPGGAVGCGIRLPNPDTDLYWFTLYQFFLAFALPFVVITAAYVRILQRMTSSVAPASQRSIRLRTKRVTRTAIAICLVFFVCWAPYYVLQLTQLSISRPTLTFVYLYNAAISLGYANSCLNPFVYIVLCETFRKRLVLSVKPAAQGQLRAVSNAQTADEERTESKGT
T2 sequence (P41145 whole entry): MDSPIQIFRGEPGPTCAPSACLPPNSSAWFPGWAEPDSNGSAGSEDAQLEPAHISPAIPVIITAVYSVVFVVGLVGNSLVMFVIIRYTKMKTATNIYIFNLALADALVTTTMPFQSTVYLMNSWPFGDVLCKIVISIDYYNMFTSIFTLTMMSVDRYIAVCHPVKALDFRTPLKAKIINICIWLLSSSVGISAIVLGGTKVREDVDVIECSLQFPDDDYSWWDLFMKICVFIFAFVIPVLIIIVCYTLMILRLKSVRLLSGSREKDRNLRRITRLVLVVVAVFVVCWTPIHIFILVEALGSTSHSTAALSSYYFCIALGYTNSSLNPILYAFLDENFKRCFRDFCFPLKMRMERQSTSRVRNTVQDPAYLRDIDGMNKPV
T3 sequence (P32245 whole entry): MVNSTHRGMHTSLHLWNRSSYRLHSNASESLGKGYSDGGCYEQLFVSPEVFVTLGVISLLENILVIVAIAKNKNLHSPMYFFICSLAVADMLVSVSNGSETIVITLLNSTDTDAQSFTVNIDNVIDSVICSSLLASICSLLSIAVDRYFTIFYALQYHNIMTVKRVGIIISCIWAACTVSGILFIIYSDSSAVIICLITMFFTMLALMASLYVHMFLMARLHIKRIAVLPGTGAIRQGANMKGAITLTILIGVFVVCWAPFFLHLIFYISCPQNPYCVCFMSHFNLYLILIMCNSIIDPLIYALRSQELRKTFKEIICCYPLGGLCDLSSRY
T7 sequence (P35372 whole entry): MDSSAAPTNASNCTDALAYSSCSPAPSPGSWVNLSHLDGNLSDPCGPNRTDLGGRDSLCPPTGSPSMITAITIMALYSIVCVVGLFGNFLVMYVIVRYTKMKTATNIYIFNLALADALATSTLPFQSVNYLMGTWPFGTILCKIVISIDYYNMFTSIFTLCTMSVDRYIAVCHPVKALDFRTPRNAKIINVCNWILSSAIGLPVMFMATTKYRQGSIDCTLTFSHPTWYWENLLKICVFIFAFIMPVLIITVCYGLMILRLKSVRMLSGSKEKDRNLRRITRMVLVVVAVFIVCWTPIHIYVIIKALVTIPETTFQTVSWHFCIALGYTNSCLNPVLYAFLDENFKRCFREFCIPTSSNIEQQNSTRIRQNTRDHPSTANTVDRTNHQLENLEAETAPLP
T8 sequence (P41968 whole entry): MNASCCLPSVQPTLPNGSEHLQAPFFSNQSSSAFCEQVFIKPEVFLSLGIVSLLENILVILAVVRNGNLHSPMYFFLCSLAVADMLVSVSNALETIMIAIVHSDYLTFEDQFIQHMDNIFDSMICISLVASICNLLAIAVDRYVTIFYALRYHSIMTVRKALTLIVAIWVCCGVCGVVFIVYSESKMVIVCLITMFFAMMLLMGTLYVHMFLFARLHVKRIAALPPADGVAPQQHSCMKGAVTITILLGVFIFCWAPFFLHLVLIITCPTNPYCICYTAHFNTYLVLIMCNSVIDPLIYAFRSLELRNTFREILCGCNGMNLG
T10 sequence (P33032 whole entry): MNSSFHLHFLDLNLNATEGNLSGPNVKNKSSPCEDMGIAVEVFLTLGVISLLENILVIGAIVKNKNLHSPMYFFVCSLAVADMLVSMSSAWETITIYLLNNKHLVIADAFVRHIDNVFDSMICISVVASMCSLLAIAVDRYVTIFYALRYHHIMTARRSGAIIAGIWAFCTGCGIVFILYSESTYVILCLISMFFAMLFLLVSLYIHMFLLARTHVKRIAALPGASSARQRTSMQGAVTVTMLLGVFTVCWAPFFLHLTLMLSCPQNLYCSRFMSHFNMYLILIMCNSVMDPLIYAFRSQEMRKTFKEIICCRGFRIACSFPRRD
T9 sequence (P41146 whole entry): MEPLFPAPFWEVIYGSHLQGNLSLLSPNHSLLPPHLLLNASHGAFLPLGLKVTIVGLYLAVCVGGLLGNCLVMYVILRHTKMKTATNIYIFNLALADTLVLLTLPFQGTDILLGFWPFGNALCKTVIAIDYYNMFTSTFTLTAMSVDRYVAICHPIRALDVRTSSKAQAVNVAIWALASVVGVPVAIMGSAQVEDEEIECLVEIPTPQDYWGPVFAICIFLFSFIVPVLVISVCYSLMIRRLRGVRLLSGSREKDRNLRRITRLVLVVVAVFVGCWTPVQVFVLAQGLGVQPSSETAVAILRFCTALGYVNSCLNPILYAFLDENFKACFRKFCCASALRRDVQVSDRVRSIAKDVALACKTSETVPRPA
T6 sequence (P41143 whole entry): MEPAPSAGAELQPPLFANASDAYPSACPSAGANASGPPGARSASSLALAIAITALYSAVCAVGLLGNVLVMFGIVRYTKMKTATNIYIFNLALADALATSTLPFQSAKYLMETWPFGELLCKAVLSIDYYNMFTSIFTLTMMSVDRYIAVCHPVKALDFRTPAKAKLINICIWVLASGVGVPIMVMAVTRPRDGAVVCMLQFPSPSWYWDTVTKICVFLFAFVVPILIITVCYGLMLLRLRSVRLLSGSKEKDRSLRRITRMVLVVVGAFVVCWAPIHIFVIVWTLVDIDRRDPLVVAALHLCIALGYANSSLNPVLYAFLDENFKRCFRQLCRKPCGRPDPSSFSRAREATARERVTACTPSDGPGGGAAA

COCC1OC(OCc2ccccc2)C(NC(=O)CCCN)C(OCc2ccc3ccccc3c2)C1O (stereo not shown) [compound 192]
A11: inhibition of radioligand binding (Mouse urotensin (mUR2); [125I]-Urotensin II, FlashPlate): − (“−” indicates less than 50% inhibition at 10 μM) | A2: inhibition of radioligand binding (Human κ-Opioid (KOP); [3H]-Diprenorphine, filtration): − (“−” indicates less than 50% inhibition at 10 μM) | A4: inhibition of radioligand binding (Human Melanocortin (MC4); [125I]-NDP-αMSH, FlashPlate): − (“−” indicates less than 50% inhibition at 10 μM) | A9: inhibition of radioligand binding ([1]; [125I]-PYY, FlashPlate): − (“−” indicates less than 50% inhibition at 10 μM) | A8: inhibition of radioligand binding (Human neurokinin (NK1); [125I]-Substance P, filtration): + (“+” indicates greater than 50% inhibition at 10 μM) | A1: inhibition of radioligand binding (Human δ-opioid (DOP); [3H]-Bremazocine, FlashPlate): − (“−” indicates less than 50% inhibition at 10 μM) | A7: inhibition of radioligand binding (Human μ-opioid (MOP); [3H]-Naloxone, FlashPlate): − (“−” indicates less than 50% inhibition at 10 μM) | A3: inhibition of radioligand binding (Human Melanocortin (MC3); [125I]-NDP-αMSH, FlashPlate): − (“−” indicates less than 50% inhibition at 10 μM) | A10: inhibition of radioligand binding (Human opioid (ORL1); [125I]-Nociceptin, FlashPlate): − (“−” indicates less than 50% inhibition at 10 μM) | A5: inhibition of radioligand binding (Human melanocortin (MC5); [125I]-NDP-αMSH, FlashPlate): + (“+” indicates greater than 50% inhibition at 10 μM) | A6: inhibition of radioligand binding ([2]; [125I]-S36057, FlashPlate): − (“−” indicates less than 50% inhibition at 10 μM)

CO[C@H]1[C@H](O)[C@@H](COCc2cccc(O)c2)OC(OCc2ccc(-c3ccccc3)cc2)[C@@H]1NC(=O)CCNC(=N)N (stereo partly shown) [compound 147]
A11 radioligand binding, percentage inhibition (Mouse urotensin (mUR2); [125I]-Urotensin II): − (“−” indicates less than 50% inhibition at 10 μM) | A2 radioligand binding, percentage inhibition (Human κ-Opioid (KOP); [3H]-Diprenorphine): + (“+” indicates greater than 50% inhibition at 10 μM) | A4 radioligand binding, percentage inhibition (Human Melanocortin (MC4); [125I]-NDP-αMSH): + (“+” indicates greater than 50% inhibition at 10 μM) | A9 radioligand binding, percentage inhibition ([1]; [125I]-PYY): − (“−” indicates less than 50% inhibition at 10 μM) | A8 radioligand binding, percentage inhibition (Human neurokinin (NK1); [125I]-Substance P): + (“+” indicates greater than 50% inhibition at 10 μM) | A1 radioligand binding, percentage inhibition (Human δ-opioid (DOP); [3H]-Bremazocine): − (“−” indicates less than 50% inhibition at 10 μM) | A7 radioligand binding, percentage inhibition (Human μ-opioid (MOP); [3H]-Naloxone): + (“+” indicates greater than 50% inhibition at 10 μM) | A3 radioligand binding, percentage inhibition (Human Melanocortin (MC3); [125I]-NDP-αMSH): − (“−” indicates less than 50% inhibition at 10 μM) | A10 radioligand binding, percentage inhibition (Human opioid (ORL1); [125I]-Nociceptin): − (“−” indicates less than 50% inhibition at 10 μM) | A5 radioligand binding, percentage inhibition (Human melanocortin (MC5); [125I]-NDP-αMSH): + (“+” indicates greater than 50% inhibition at 10 μM) | A6 radioligand binding, percentage inhibition ([2]; [125I]-S36057): + (“+” indicates greater than 50% inhibition at 10 μM)

CSC1OC(COCc2ccccc2)C(O)C(OCc2cccc(N)c2)C1NC(=O)Cc1c[nH]c2ccccc12 (stereo not shown) [compound 322]
A11: inhibition of radioligand binding, mouse urotensin (mUR2) (Mouse urotensin (mUR2); [125I]-Urotensin II): − (“−” indicates less than 50% inhibition at 10 μM) | A2: inhibition of radioligand binding, human κ-opioid (KOP) (Human κ-Opioid (KOP); [3H]-Diprenorphine): − (“−” indicates less than 50% inhibition at 10 μM) | A4: inhibition of radioligand binding, human melanocortin (MC4) (Human Melanocortin (MC4); [125I]-NDP-αMSH): − (“−” indicates less than 50% inhibition at 10 μM) | A9: inhibition of radioligand binding, human neuropeptide Y (NPY-Y1) ([1]; [125I]-PYY): − (“−” indicates less than 50% inhibition at 10 μM) | A8: inhibition of radioligand binding, human neurokinin (NK1) (Human neurokinin (NK1); [125I]-Substance P): + (“+” indicates greater than 50% inhibition at 10 μM) | A1: inhibition of radioligand binding, human δ-opioid (DOP) (Human δ-opioid (DOP); [3H]-Bremazocine): − (“−” indicates less than 50% inhibition at 10 μM) | A7: inhibition of radioligand binding, human μ-opioid (MOP) (Human μ-opioid (MOP); [3H]-Naloxone): − (“−” indicates less than 50% inhibition at 10 μM) | A3: inhibition of radioligand binding, human melanocortin (MC3) (Human Melanocortin (MC3); [125I]-NDP-αMSH): − (“−” indicates less than 50% inhibition at 10 μM) | A10: inhibition of radioligand binding, human opioid (ORL1) (Human opioid (ORL1); [125I]-Nociceptin): − (“−” indicates less than 50% inhibition at 10 μM) | A5: inhibition of radioligand binding, human melanocortin (MC5) (Human melanocortin (MC5); [125I]-NDP-αMSH): − (“−” indicates less than 50% inhibition at 10 μM) | A6: inhibition of radioligand binding, human melanin-concentrating hormone (MCH1) ([2]; [125I]-S36057): − (“−” indicates less than 50% inhibition at 10 μM)

CO[C@H]1[C@H](O)[C@@H](COCc2ccccc2)OC(OCCc2ccccc2)[C@@H]1NC(=O)CCCNC(=N)N (stereo partly shown) [compound 118]
A11 radioligand binding, percentage inhibition (Mouse urotensin (mUR2); [125I]-Urotensin II): − (“−” indicates less than 50% inhibition at 10 μM) | A2 radioligand binding, percentage inhibition (Human κ-Opioid (KOP); [3H]-Diprenorphine): − (“−” indicates less than 50% inhibition at 10 μM) | A4 radioligand binding, percentage inhibition (Human Melanocortin (MC4); [125I]-NDP-αMSH): − (“−” indicates less than 50% inhibition at 10 μM) | A9 radioligand binding, percentage inhibition ([1]; [125I]-PYY): − (“−” indicates less than 50% inhibition at 10 μM) | A8 radioligand binding, percentage inhibition (Human neurokinin (NK1); [125I]-Substance P): + (“+” indicates greater than 50% inhibition at 10 μM) | A1 radioligand binding, percentage inhibition (Human δ-opioid (DOP); [3H]-Bremazocine): − (“−” indicates less than 50% inhibition at 10 μM) | A7 radioligand binding, percentage inhibition (Human μ-opioid (MOP); [3H]-Naloxone): − (“−” indicates less than 50% inhibition at 10 μM) | A3 radioligand binding, percentage inhibition (Human Melanocortin (MC3); [125I]-NDP-αMSH): − (“−” indicates less than 50% inhibition at 10 μM) | A10 radioligand binding, percentage inhibition (Human opioid (ORL1); [125I]-Nociceptin): − (“−” indicates less than 50% inhibition at 10 μM) | A5 radioligand binding, percentage inhibition (Human melanocortin (MC5); [125I]-NDP-αMSH): − (“−” indicates less than 50% inhibition at 10 μM) | A6 radioligand binding, percentage inhibition ([2]; [125I]-S36057): − (“−” indicates less than 50% inhibition at 10 μM)

CO[C@H]1[C@H](O)[C@@H](COCc2ccc(-c3ccccc3)cc2)OC(OCc2ccc(-c3ccccc3)cc2)[C@@H]1NC(=O)CNC(=N)N (stereo partly shown) [compound 51]
A11 radioligand binding inhibition (Mouse urotensin (mUR2); mouse urotensin mUR2 membranes): − (“−” indicates less than 50% inhibition at 10 μM) | A2 radioligand binding inhibition (Human κ-Opioid (KOP); human κ-opioid (KOP) membranes): − (“−” indicates less than 50% inhibition at 10 μM) | A4 radioligand binding inhibition (Human Melanocortin (MC4); human melanocortin MC4 membranes): + (“+” indicates greater than 50% inhibition at 10 μM) | A9 radioligand binding inhibition ([1]; human NPY-Y1 membranes): − (“−” indicates less than 50% inhibition at 10 μM) | A8 radioligand binding inhibition (Human neurokinin (NK1); human neurokinin NK1 membranes): + (“+” indicates greater than 50% inhibition at 10 μM) | A1 radioligand binding inhibition (Human δ-opioid (DOP); human δ-opioid (DOP) membranes): − (“−” indicates less than 50% inhibition at 10 μM) | A7 radioligand binding inhibition (Human μ-opioid (MOP); human μ-opioid (MOP) membranes): − (“−” indicates less than 50% inhibition at 10 μM) | A3 radioligand binding inhibition (Human Melanocortin (MC3); human melanocortin MC3 membranes): + (“+” indicates greater than 50% inhibition at 10 μM) | A10 radioligand binding inhibition (Human opioid (ORL1); human ORL1 membranes): + (“+” indicates greater than 50% inhibition at 10 μM) | A5 radioligand binding inhibition (Human melanocortin (MC5); human melanocortin MC5 membranes): + (“+” indicates greater than 50% inhibition at 10 μM) | A6 radioligand binding inhibition ([2]; human MCH1 membranes): + (“+” indicates greater than 50% inhibition at 10 μM)
